Here are results for five compounds from patent US20240398754A1, “VERATRALDEHYDE, PIPERONYL ALCOHOL, ETHYL 2-AMINO BENZOATE, ISOAMYL CINNAMATE, OR DIETHYL MALONATE AS FOOD ADDITIVES WITH ANTI-INFLAMMATORY PROPERTIES” (NATIONAL UNIVERSITY OF IRELAND, MAYNOOTH, priority 2021, published 2024).

The subject of assay [1] is COL2A1. In words: In vitro arthritis model: DH82 supernatant transferred to canine chondrocytes, COL2A1 mRNA by RT-PCR. Type of assay: cell-based. The note with it: FIG. 14(A); DH82 macrophage cells treated with 500 μM for 2 hrs and LPS (100 μg/ml) 3 hours; media transferred to canine chondrocytes (CNC) 24 hours; compared to LPS alone. On the procedure:
FIG. 13: (1) DH82 cells are plated and stimulated with the compound, followed by LPS. (2) After 24 hours, TNF has been produced by the cells and (3) This liquid supernatant is removed from the cells and reserved. (4) Chondrocytes are plated and (5) the reserved liquid supernatant containing TNF and other inflammatory cytokines from the DH82 cells is added on top of these cells, thus exposing the cartilage cells to an inflammatory environment, simulating an inflammatory joint. (6) After 24 hours gene expression of COL2A1 is measured.
FIG. 14: (A) DH82 cells were stimulated with DMSO (vehicle) or veratraldehyde (500 μM) for 2 hrs and stimulated with LPS (100 μg/ml) for 3 hours. […] COL2A1 mRNA expression was measured by RT-PCR. (B) Quantitative RT-PCR of mRNA expression of COL2A1 in Canine chondrocytes (CNC) pretreated with DMSO (vehicle), Methyl Isoeugenol, NaOH, Vertic Acid, Folic Acid, Piperonyl Alcohol, Veratraldehyde (500 μM) for 24 hrs. […]
Canine chondrocyte (CNC) cells were cultured in complete CNC media in a 37° C. humidified chamber under a 5% CO2 atmosphere. Cell morphology and confluence were monitored daily. […]
Enriched inflammatory cell supernatant from DH82 cells was prepared by first stimulating seeded DH82 cells with compound, followed by stimulation with LPS for 3 hours. […] After 24 hours, mRNA was harvested from CNC as described above and levels of COL2A1 were assessed. […]

The subject of assay [2] is Human THP1 cells. The assay can be described thus: ELISA analysis of IL-10 and TNF expression in media from LPS-stimulated THP1 cells (cytokine release platform). The conditions noted are these: FIG. 11A-F, compounds at 1 mM, 100 μM and 10 μM for 2 hrs, vs DMSO vehicle. It counts as cell-based. The procedure:
FIG. 10: ELISA analysis of IL-10 and TNF expression in media from cells pretreated with DMSO (vehicle) or (A/B) piperonyl acetate and (C/D) piperonyl isobutyrate for 2 hrs and stimulated with LPS for 24 hrs. Human THP1 cells treated with compounds at (1 mM, 100 μM and 10 μM) and LPS […]. All data are presented as the mean±SEM of three or four independent experiments and were subjected to paired Student's t test.
FIG. 11: ELISA analysis of IL-10 and TNF expression in media from cells pretreated with DMSO (vehicle) or (A/B) vanillin, (C/D) ethyl vanillin and (E/F) divanillin for 2 hrs and stimulated with LPS for 24 hrs. Human THP1 cells treated with compounds at (1 mM, 100 μM and 10 μM) and LPS […]. (G) DH82 cells were treated with veratric acid (1 mM, 500 uM, 250 uM, 125 uM, 60 uM, 30 uM) for 2 hrs and stimulated with LPS for 24 hrs. All data are presented as the mean±SEM of three or four independent experiments and were subjected to paired Student's t test.
THP-1 cells were cultured in RPMI supplemented with 10% (v/v) heat inactivated FBS, penicillin G (100 μg/ml) and streptomycin (100 μg/ml) in a 37° C. humidified chamber under a 5% CO2 atmosphere. Cell morphology and confluence, including media acidification colour change were monitored daily. Twice a week, cells were passaged by removal from flask and centrifugation at 400 G. Cells were cultured for a maximum of 25 passages in order to avoid excessive genetic drift. Cells were seeded at 1×10^6/ml.
Cell supernatant or serum samples were collected and stored at −80° C. prior to analysis. 96-well NUNC “Maxisorb” plates were coated with 100 μl capture antibody diluted to a working concentration in PBS. […] The optical density (OD) value of each well was measured at 450 nm with a correction at 590 nm. A ELx800™ microplate reader with Gen5 Data Analysis Software was used to carry out the reading. The sample concentrations were determined by interpolating the sample absorbance from the known concentrations of the standard curve. Standards were assayed in duplicate while samples were analysed in triplicate. […]
Background: ELISA stands for enzyme-linked immunosorbent assay.

Assay [3] deals with DH82 cells. The assay can be described thus: ELISA of media from LPS-stimulated DH82 cells. The note with it: FIG. 11G, 1 mM, 500 uM, 250 uM, 125 uM, 60 uM, 30 uM for 2 hrs, then LPS for 24 hrs. Type of assay: cell-based, canine. The procedure: FIG. 3: ELISA analysis of TNF expression in media from cells pretreated with DMSO (vehicle) or Veratraldehyde for 2 hrs and stimulated with LPS for 24 hrs. (A) human THP1 cells treated with Veratraldehyde (200 μM, 100 μM and 50 μM) and LPS (1 mg/ml). (B) human peripheral blood mononuclear cell (PBMC) treated with Veratraldehyde (100 μM) and LPS (100 μg/ml). (C) murine bone-marrow-derived macrophages (BMDMs) isolated from C57BL/6 WT mice treated with Veratraldehyde (100 μM) and LPS (100 μg/ml). (D) Quantitative RT-PCR of mRNA expression of Tnf in PBMCs pretreated with DMSO (vehicle) or veratraldehyde (100 μM) for 2 hrs and stimulated with LPS (100 μg/ml) for 3 hrs. (E and G) TNF was measured from canine macrophage-like cells (DH82) treated with veratraldehyde (1 mM, 500 uM, 200 uM, 100 uM, 50 uM, 10 uM) and LPS for 24 hours by ELISA. (F) Quantitative RT-PCR of mRNA expression of Tnf in DH82 cells pretreated with DMSO (vehicle) or veratraldehyde (500 μM) for 2 hrs and stimulated with LPS (100 μg/ml) for 1.5 and 3 hrs. […] COL2A1 mRNA expression was measured by RT-PCR. […]
DH82 cells were cultured in EMEM supplemented with 10% (v/v) heat inactivated FBS, penicillin G (100 μg/ml) and streptomycin (100 μg/ml) in a 37° C. humidified chamber under a 5% CO2 atmosphere. Cell morphology and confluence were monitored daily. […]

In the case of `COc1ccc(C=O)cc1OC` [veratraldehyde, 3,4-dimethoxybenzaldehyde], the “levels of COL2A1 (mRNA expression) in chondrocyte cells” value in assay [1] is “significant restoration”. With `COc1cc(C=O)cc(-c2cc(C=O)cc(OC)c2O)c1O` [divanillin], the “anti-inflammatory effect (ELISA analysis of IL-10 and TNF expression in media)” value in assay [2] is given as “does not show an anti-inflammatory effect”. For the compound `COc1ccc(C(=O)O)cc1OC` [veratric acid], the “anti-inflammatory effect (ELISA)” value in assay [3] is on record as “does not show an anti-inflammatory effect”. As for `COc1cc(C=O)ccc1O` [vanillin], in assay [2], the “anti-inflammatory effect (ELISA analysis of IL-10 and TNF expression in media)” value was “does not show an anti-inflammatory effect”. Still for that read-out and setting: the result for `CCOc1cc(C=O)ccc1O` [ethyl vanillin] reads “does not show an anti-inflammatory effect”.
